Literature values in US20230210762A1, “TRANSDERMAL DRUG DELIVERY DEVICES HAVING PSILOCYBIN, LYSERGIC ACID DI[…] 3,4-METHYLENEDIOXYMETHA[…] MICROPROTRUSIONS” (Emergex USA Corporation, priority 2020, published 2023).
Where two headings read alike, the source gives them in different places.

Columns and labels:
[1] = psilocybin administered orally to rats
[2] = not given; remark: listed apart in the source
[3] = not given; remark: listed apart in the source

SMILES	time until psilocin is detectable in plasma (after administration of the parent compound psilocybin) [min]	time to maximum plasma levels [1]	total volume of psilocin absorbed from the digestive tract [1]	ingested psilocybin absorbed through the stomach and intestine ([2]; oral, studies in animals)	detected in urine, time after ingestion ([2]; urine) [days]	time within which most of the drug is eliminated ([2]; via urine, bile and feces) [h]	absorbed psilocybin excreted in the bile and feces ([2]; within 24 hours)	absorbed psilocybin excreted into the urine ([2]; within 24 hours)	solubility in water [3]	half-life (administered intravenously) [h]	half-life (administered orally) [h]	bioavailability (psilocybin ingested orally)
CN(C)CCc1c[nH]c2cccc(O)c12 [psilocin]	≤ 20	approximately 90 minutes	approximately 50%									
CN(C)CCc1c[nH]c2cccc(OP(=O)(O)O)c12 [psilocybin, 3-[2-(demethylamino)ethyl-1H-indol-4-yl] dihydrogen phosphate]				about 50%	7	≤ 8	15-20%	about 65%	soluble	1.24 ± 0.327	2.72 ± 1.07	about 50%
